Common to all, as to experiment: relative viability (nuclei count vs DMSO), 5 days (fraction); higher = more cells survive
Compound in test [1]: C1=CC2=NC=CN=C2C=C1/C=C/3\C(=O)NC(=O)S3 + CC(=O)Nc1cccc(-n2c(=O)n(C3CC3)c(=O)c3c(Nc4ccc(I)cc4F)n(C)c(=O)c(C)c32)c1 [Trametinib] (partner 0.02 µM)
Summed up:
(§1)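 Relative viability equals treated-well nuclei counts divided by vehicle-well nuclei counts. Counts came from 4× images of lung cancer cell lines grown in 1536-well plates for 5 days after pin-tool dosing on the day after seeding. Dosing used one drug alone or a fixed anchor-drug dose plus five library-drug doses (not always all listed) in √10 steps, and values are medians of duplicate plates.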

Compound in test [2]: CCN1CCN(c2ccc(Nc3cc(N(C)C(=O)Nc4c(Cl)c(OC)cc(OC)c4Cl)ncn3)cc2)CC1 [BGJ398] + Cc1nc(NC(=O)N2CCC[C@H]2C(N)=O)sc1-c1ccnc(C(C)(C)C(F)(F)F)c1 [Alpelisib] (partner 2 µM)
Summed up: as §1

Compound in test [3]: C1=CC2=NC=CN=C2C=C1/C=C/3\C(=O)NC(=O)S3 + Nc1ncn([C@H]2C[C@H](O)[C@@H](CO)O2)c(=O)n1 [Decitabine] (partner 2 µM)
The gist of the method: as §1

Compound in test [4]: CCN1CCN(c2ccc(Nc3cc(N(C)C(=O)Nc4c(Cl)c(OC)cc(OC)c4Cl)ncn3)cc2)CC1 [BGJ398] + C[C@@H](Oc1cc(-c2cnn(C3CCNCC3)c2)cnc1N)c1c(Cl)ccc(F)c1Cl [Crizotinib] (partner 1 µM)
The gist of the method:
as §1

For UMC-11, the relative viability in test [1] (first compound 0.02 µM) came to 0.697; in test [1] (first compound 0.06325 µM) it was 0.792; in test [1] (first compound 0.2 µM) it was 0.75; in test [1] (first compound 0.6325 µM) it was 0.663; in test [1] (first compound 2 µM), 0.81; in test [2] (first compound 0.01 µM), 0.999. The relative viability in test [2] (first compound 0.03162 µM) came to 0.88; in test [2] (first compound 0.1 µM) it was 1.06; in test [2] (first compound 0.3162 µM), 0.983; in test [2] (first compound 1 µM), 0.907; in test [3] (first compound 0.02 µM), 0.695; in test [3] (first compound 0.06325 µM), 0.665. Further, the relative viability in test [3] (first compound 0.2 µM) worked out at 0.681; in test [3] (first compound 0.6325 µM), 0.531; in test [3] (first compound 2 µM), 0.69; in test [4] (first compound 0.01 µM) it was 0.507; in test [4] (first compound 0.03162 µM), 0.585; in test [4] (first compound 0.1 µM) it was 0.539. Further, the relative viability in test [4] (first compound 0.3162 µM) was 0.579; in test [4] (first compound 1 µM), 0.53.

The record behind these values is the supplement of paper PMC10307832.
